Source: patent US11122801B2, “Inhibitors of enzymes that confer pesticide resistance” (APRESLABS LTD., priority 2015, dated 2021)

Assays:
[1] = target: T1, resistance-associated esterase, E4 (Myzus persicae, UniProt P35501); assay: Inhibition of purified resistance-associated esterase E4, para-nitrophenyl acetate substrate; type: biochemical, M. persicae; conditions: 3 μL 1% synergist, 10 minutes incubation, 1 mM para-nitrophenyl acetate, 405 nm
T1 sequence (P35501 24-552): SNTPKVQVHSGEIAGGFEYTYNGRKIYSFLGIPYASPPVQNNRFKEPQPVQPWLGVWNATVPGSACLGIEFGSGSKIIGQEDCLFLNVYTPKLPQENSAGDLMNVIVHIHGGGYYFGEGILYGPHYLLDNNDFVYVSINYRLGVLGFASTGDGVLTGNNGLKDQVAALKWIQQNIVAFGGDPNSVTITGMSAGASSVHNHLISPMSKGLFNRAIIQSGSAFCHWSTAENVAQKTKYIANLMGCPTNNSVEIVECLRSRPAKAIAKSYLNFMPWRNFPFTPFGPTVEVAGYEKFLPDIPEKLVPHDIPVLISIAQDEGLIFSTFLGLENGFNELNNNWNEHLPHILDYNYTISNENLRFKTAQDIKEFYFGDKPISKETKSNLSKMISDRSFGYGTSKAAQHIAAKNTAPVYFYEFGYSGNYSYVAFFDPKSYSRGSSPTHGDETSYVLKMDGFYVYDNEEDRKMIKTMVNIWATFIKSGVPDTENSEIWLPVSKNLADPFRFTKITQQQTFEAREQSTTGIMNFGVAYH
Protocol: The assay used 1 mM para-nitrophenyl acetate as a substrate. 10 μL dilute E4 in 40 μL phosphate buffer (pH 7.0) was incubated with 3 μL 1% synergist for 10 minutes. 200 μL of 1 mM para-nitrophenyl acetate was added and the remaining activity was measured at 405 nm in a microplate spectrophotometer (Molecular Devices). Inhibition by the same concentration of PBO is shown for comparison.

[2] = tested on: Houseflies (Musca domestica); assay: Housefly topical mortality with α-cypermethrin and Syn A (Example 1); type: in vivo; conditions: α-cypermethrin alone, 1 μL of 0.0025 g L^−1, after 24 hrs
Protocol: Houseflies (Musca domestica) were treated with 1 μL of a diagnostic concentration (0.0025 g L^−1) of α-cypermethrin, such that about 20% of the flies had died after 24 hrs.
With the addition of 1% ‘Syn A’, (i.e. 10 ug/fly) the potassium salts of fatty acids (C14-C18) obtained as a by-product of olive oil production, the mortality increased to about 70% after 24 hours. The potassium salt synergist was applied first, and the insecticide was applied within 1 hr of the application of the synergist.
The mortality rate when Syn A was used on its own was about 10%.

[3] = tested on: P450 activity derived from insecticide-resistant B-type B. tabaci; assay: P450 activity by deethylation of ethoxycoumarin (Example 5); conditions: 1% (30 ug/incubation), 10 minutes incubation, 7-ethoxycoumarin
Protocol: P450 activity was measured by the deethylation of ethoxycoumarin. 50 μL of the enzyme in the presence/absence of synergists was incubated for 10 minutes after which […] of 0.5 mm 7-ethyoxycoumarin in a phosphate buffer (pH 7.8) was added/incubated for a further 5 minutes at 30° C. after which 10 μL of 9.6 mm NaDPH was added. Fluorometric units (Fu) were measured with excitation wavelengths of 370 nm and 460 nm.

[4] = tested on: P450 activity derived from Meligethes aeneus; assay: P450 activity by deethylation of ethoxycoumarin (Example 7); type: biochemical; conditions: equal concentrations, 30 ug/incubation
Protocol: P450 activity was measured by the deethylation of ethoxycoumarin.
(30 ug/incubation) as used in Example 5.

In the case of CCCCC/C=C\C/C=C\CCCCCCCC(=O)O [linoleic acid], the “inhibition of esterase E4” value [1] is reported as “inhibition”.

For CC1(C)C(C=C(Cl)Cl)C1C(=O)OC(C#N)c1cccc(Oc2ccccc2)c1 (stereo not drawn) [α-cypermethrin], the “flies died (mortality)” value [2] was “about 20%”.

In the case of CCCCCCCC/C=C\CCCCCCCC(=O)O [oleic acid], the “inhibition of esterase E4” value [1] is reported as “inhibition” and the “inhibition of P450 activity” value [3] is reported as “inhibition”.

For CCCCOCCOCCOCc1cc2c(cc1CCC)OCO2 [PBO, piperonyl butoxide], the “inhibition of P450 activity” value [4] was “inhibition”.
